Measured values: US20260227411A1, “CONJUGATED METABOLITES FOR CANCER DETECTION AND TREATMENT” (VANDERBILT UNIVERSITY, priority 2023, published 2026)

Tests used:
[1] = tested on: human gastric organoid lines; experiment: A939572 treatment of human gastric organoid lines; format: cell-based; details: 1 μM for human
dysplastic organoids [2] = experiment: Metabolic enzyme inhibitor treatment of mouse dysplastic organoids; format: cell-based
Protocol: (§1) Mouse gastric organoids were established from corpus of untreated or Gif-rtTA; TetO-Cre; KrasG12D (GCK) mouse stomachs as described previously. The GCK mouse gastric organoids were cultured in ECM Gel (E1270, Sigma-Aldrich) or Cultrex® Reduced Growth Factor Basement Membrane Extract, Type R1 (3433-005-R1, R&D systems) with Mouse IntestiCult medium (06005, StemCell Technology) supplemented with 1% of penicillin/streptomycin (2441832, Gibco) in 48-well plates. The medium was replaced every 3 days and organoids were split every 3 to 5 days. Human gastric organoids were previously established from patients who underwent curative gastrectomy as described. The human gastric organoids were cultured in Corning™ Matrigel™ Membrane Matrix (356231, Thermo Fisher Scientific) with Human IntestiCult medium (06010, StemCell Technology) supplemented with 1% of penicillin/streptomycin, 0.2% of MycoZap (VZA-2031, Lonza) in a 48-well plate.
(§2) For metabolic enzyme inhibitor treatment, the media was switched to metabolic enzyme inhibitor containing media at one day after splitting the mouse gastric organoids and cultured for 3 days. For metabolite treatment, mouse gastric organoids were treated 100 nM A939572 with metabolites (cis-11-eicosenoic acid or cis-7,10,13,16-docosatetraenoic acid) at one day after splitting the mouse gastric organoids and cultured for 3 days. […] Quantitative data analyses were performed using at least 3 wells of images at 4× magnification. For measurement of organoid growth, phase contrast images of organoids were captured over time and measured at the widest diameters using the ZEN 3.3 blue edition (Zeiss) measuring tool. […]
To determine the role of metabolic switch in dysplastic cells, expression levels of key metabolic enzymes, important for glycolysis or FA metabolism, were examined using gastric organoids established from each stage of GCK mice (FIG. 4A). […] The functional roles of metabolic pathways were assessed using key enzyme inhibitors in dysplastic organoids which highly expressed SCD1 (FIG. 4E). […]

normal gastric organoids = experiment: A939572 treatment of normal gastric organoids; format: cell-based, mouse; details: 100 nM A939572
Protocol: as §1, with “The human gastric organoids were cultured in Corning™ Matrigel™ Membrane Matrix (356231, Thermo Fisher Scientific) with Human IntestiCult medium (06010, StemCell Technology) supplemented with 1% of penicillin/streptomycin, 0.2% of MycoZap (VZA-2031, Lonza) in a 48-well plate.” left out
as §2, with “media” for “media at one day after splitting the mouse gastric organoids and cultured for 3 days. For metabolite treatment, mouse gastric organoids were treated 100 nM A939572 with metabolites (cis-11-eicosenoic acid or cis-7,10,13,16-docosatetraenoic acid)”

[3] = tested on: Gif-rtTA; TetO-Cre; Kras^G12D (GCK) mice; experiment: In vivo A939572 treatment of GCK mice; details: 20 mg/kg intraperitoneal daily for 2 weeks
Protocol: All experiments involving mice used in this study followed protocols approved by the Institutional Animal Care and Use Committees of Vanderbilt University Medical Center. Littermates or age-matched mice were randomly allocated to experimental or control groups. Animal weights were recorded at initiation of experiment and at the time of euthanasia. To generate the Gif-rtTA; TetO-Cre; Kras^G12D (GCK) mice, the Gif-rtTA mice were crossed with TetO-Cre mice and Lox-Stop-Lox (LSL)-Kras^G12D mice (no. 006224 and 008179, Jackson Laboratories). For the induction of Cre-mediated recombination, 6-week-old mice were administered with doxycycline water at a concentration of 1 mg/mL for 2 weeks. Mice were sacrificed at 2 to 14 weeks after doxycycline treatment for histological examination. For in vivo A939572 treatment, A939572 (HY-50709; MedChemExpress) was dissolved in dimethyl sulfoxide (DMSO) as a 100 mg/mL stock and stored at −80° C. in aliquots. The A939572 was administered daily for two weeks by intraperitoneal injection (20 mg/kg diluted in corn oil) to mice at 6 weeks after doxycycline treatment. Mice were sacrificed within a day after the last A939572 treatment.
Mouse tissues were isolated and fixed overnight in 4% paraformaldehyde, embedded in paraffin. Paraffin-embedded sections were sectioned at a thickness of five-micrometer and stained with hematoxylin and eosin (H&E). For immunostaining, unstained paraffin tissue sections were deparaffinized in HistoClear (HS-200, National Diagnostics) and rehydrated through a serial dilution of ethanol. Antigen retrieval was performed in target retrieval solution (S1699 or S2367, Agilent) using a pressure cooker for 15 minutes. Sections were rinsed in dH2O and incubated with Serum-free Protein Block Solution (X0909, Agilent) for 1.5 hours at room temperature (RT). Sections were additionally incubated with Mouse on Mouse Blocking Reagent (MKB-2213-1, Vector Laboratories) for 30 min at RT to block nonspecific staining with primary antibodies generated in mice on mouse tissues. Primary antibodies were diluted in Antibody Diluent (S3022, Agilent) and applied to sections overnight at 4° C.
For immunofluorescence, paraffin sections were washed with 1×PBS three times and incubated with Alexa-conjugated secondary antibodies (Life Technologies, 1:500) for 1 hour at RT. Sections were washed with 1×PBS three times and incubated with Hoechst 33342 (62249, Thermo Fisher Scientific, 1:5000) for 5 min at RT. The sections were then washed with 1×PBS three times and mounted with Prolong gold anti-fade reagent (P36934, Thermo Fisher Scientific). Images were captured on a Zeiss Axio Imager M2 microscope with Axiovision digital imaging system at 20× magnification. For immunohistochemistry, paraffin sections were washed with 1×PBS three times and incubated with HRP-conjugated secondary antibodies (MP-7402, Vector Laboratories) for 15 min at RT. Sections were washed with 1×PBS three times and incubated with Envision+ Detection System Peroxidase/DAB substrate (Dako). Sections were then washed with dH2O and counterstained Mayer's Hematoxylin (MHS32, Sigma-Aldrich). The sections were dehydrated and mounted with aqueous mounting medium. The sections were scanned on an SCN400 Slide Scanner (Leica Biosystems) at 20× magnification. TUNEL staining was performed using the Click-iT Plus TUNEL assay kit, according to the manufacturer's protocol (C10618, Life Technologies).
H&E-stained sections were scanned in SCN400 Slide Scanner and analyzed by Aperio ImageScope software (Leica Biosystems). Gland types were classified using the same diagnostic criteria used for human tissue sections. Briefly, the gland representing foveolar hyperplasia without goblet cells and mucous metaplasia at the base was diagnosed as a pyloric metaplastic gland, while intestinal metaplasia was determined by presence of basophilic mucin droplet-containing cells in the foveolar region.

dysplastic organoids [4] = experiment: Metabolite rescue of A939572-treated dysplastic organoids; format: cell-based, mouse
Protocol: For metabolic enzyme inhibitor treatment, the media was switched to metabolic enzyme inhibitor containing media at one day after splitting the mouse gastric organoids and cultured for 3 days. For metabolite treatment, mouse gastric organoids were treated 100 nM A939572 with metabolites (cis-11-eicosenoic acid or cis-7,10,13,16-docosatetraenoic acid) at one day after splitting the mouse gastric organoids and cultured for 3 days. The EVOS M7000 inverted microscope (Thermo Fisher Scientific) or JuLI™ stage, a Real-Time Cell History Recorder (NanoEntek) were used to capture phase contrast images of the organoids or monitor the growth and morphological changes of the organoids in real-time. Quantitative data analyses were performed using at least 3 wells of images at 4× magnification. For measurement of organoid growth, phase contrast images of organoids were captured over time and measured at the widest diameters using the ZEN 3.3 blue edition (Zeiss) measuring tool. For Calcein AM/Ethidium-1(EthD-1) staining, mouse gastric organoids were cultured for 1 day after splitting and transferred to microfluidic-based flowchips (Protein Fluidics) that can enable 3D cell-based assay. The media containing 100 nM A939572 with metabolites (cis-11-eicosenoic acid or cis-7,10,13,16-docosatetraenoic acid) was added to the top of the organoids and cultured for 3 days. Then, the organoids were stained with […] (L3224, Thermo Fisher Scientific) for 30 min at 37° C. Confocal imaging was performed on a Zeiss LSM 880 using a 20× magnification. To prepare Formalin-Fixed, Paraffin-Embedded (FFPE) organoid sections, whole mouse or human gastric organoids in Matrigel™ were fixed in 4% PFA for 30 min at RT and washed with 1×PBS twice. The organoids were embedded in Epredia™ HistoGel™ (HG-4000-012, Thermo Fisher Scientific) and processed according to a standard histological protocol for paraffin embedding.
To address how and why dysplastic cells utilize the SCD-dependent FA desaturation, experiments examined the functions of two different unsaturated long-chain FAs, MUFA (FFA 20:1) and PUFA (FFA 22:4), which were abundant in dysplasia. Two metabolites, Eicosenoic acid (EA; 20:1n9, MUFA) and Docosatetraenoic acid (DA; 22:4n6, PUFA) (FIG. 7A) were selected based on the enhanced fragment ions detected from imaging mass spectrometry (FIG. 3E). Dysplastic organoids were co-treated with A939572, in combination with either EA or DA for 3 days. […] To determine the subcellular localization of EA in dysplastic cells, EA was conjugated with NBD, a green-fluorescent compound (NBD-EA) (FIG. 7B and FIG. 8A-B). […] Since the EA is imported into mitochondria, experiments further examined whether the EA undergoes FA oxidation which occurs in the mitochondrial aerobic metabolism and produces energy substrate for the TCA cycle.

NIH-3T3 cells = experiment: EA-DM1 treatment of NIH-3T3 cells (negative control); format: cell-based, mouse; details: 5 nM, 2 days
Protocol: (§3) FIG. 9A-B show cells treated with EA-DM1 (cis-11-eicosenoic acid conjugated to mertansine (DM1)). […] DMSO was used as a vehicle control. […] The NIH-3T3 cell line was used as a negative control, and mouse normal cells and DMSO were used as a vehicle control.
(§4) To evaluate whether EA-DM1 (cis-11-eicosenoic acid conjugated to mertansine (DM1)) could be internalized and release free DM1 toxin into the cytosol, two different gastric cancer cell lines, AGS and NCI-N87, were treated with EA-DM1 for 2 days (FIG. 9A-B). Gastric cancer cells died within 2 days after the EA-DM1 treatment at 100 nM concentration (FIG. 9A).

AGS = experiment: EA-DM1 treatment of gastric cancer cell line AGS; format: cell-based
Protocol: as §3, §4

NCI-N87 = experiment: EA-DM1 treatment of gastric cancer cell line NCI-N87; format: cell-based; details: 100 nM
Protocol: as §3, §4

dysplastic cells = experiment: Subcellular localization of NBD-EA in 2-dimensional monolayer culture; format: cell-based, mouse
Protocol: Mouse gastric organoids were dissociated into single cells and dissociated cells (5,000 cells/well) were seeded on the collagen-coated 8-well chamber slide (ibidi) in Mouse IntestiCult medium (06005, StemCell Technology) for two days until the cells reach at 50% confluency. The cells were incubated with NBD (Compound A) or NBD-conjugated Eicosenoic acid over time and then stained with 100 nM MitoTracker™ Red CMXRos (M7512, Thermo Fisher Scientific) for 20 min at 37° C. The cells were washed with pre-warmed 1×PBS three times and counterstained with Hoechst for 5 min at RT. Confocal imaging was performed on a Zeiss LSM 880 using 63× magnification.

[5] = co-treated with 100 nM A939572 for 3 days

Structure (SMILES): CNC(=O)c1cccc(NC(=O)N2CCC(Oc3ccccc3Cl)CC2)c1 [A939572, 4-(2-chlorophenoxy)-N-(3-(methylcarbamoyl)phenyl)piperidine-1-carboxamide]
- time within which organoids died after treatment ([1]; organoid lines with dysplastic histology expressing both SCD and Trop2): ≤ 6 days
- response to treatment ([1]; organoids with low level of SCD, Trop2 negative (metaplastic)): did not respond to the treatment
- time within which dysplastic organoid growth and survival were impeded (dysplastic organoids [2]; 100 nM A939572): ≤ 1 days
- cell proliferation (Ki-67) in dysplastic organoids (dysplastic organoids [2]; 100 nM A939572, IF staining): a decrease in cell proliferation
- cleaved caspase-3 positive apoptotic cells in dysplastic organoids (dysplastic organoids [2]; 100 nM A939572, IF staining): accumulation of cleaved caspase-3 positive apoptotic cells in the central lumen of dysplastic organoids
- response of normal gastric organoids (normal gastric organoids): did not show any significant changes
- F4/80+CD68+ macrophages [3]: slightly increased only at the base of glands
- F4/80+CD68- macrophage infiltration [3]: significantly increased in the transitioning and surface areas
- SPEM cells after treatment [3]: still present at the gland base and not co-positive for cleaved caspase-3 or TUNEL signal
- dead cells within the transitioning cell zone (cleaved caspase-3, TUNEL) [3]: significant increase in dead cells
- effects in other organs ([3]; at 6 weeks after doxycycline): without any effects in other organs
- gastric mucosa histology (H&E) ([3]; at 6 weeks after doxycycline): flattened mucosa and loss of histological characteristics of dysplastic cells in the transitioning and surface areas of glands

Structure (SMILES): CCCCCC=CCC=CCC=CC/C=C\CCCCCC(=O)O [DA, cis-7,10,13,16-docosatetraenoic acid]
- rescue of dysplastic organoids from SCD inhibition (organoid size) (dysplastic organoids [4]; [5]): did not show any differences compared to the organoids treated only with A939572

Structure (SMILES): CCCCCCCC/C=C\CCCCCCCCCC(=O)O [EA, cis-11-eicosenoic acid]
- organoid structure (dysplastic organoids [4]; [5]): not disrupted and showed clear central lumens
- rescue of dysplastic organoids from SCD inhibition (organoid size) (dysplastic organoids [4]; [5]): recovered from SCD inhibition and displayed a significant increase in size

Structure (SMILES): CCCCCCCC/C=C\CCCCCCCCCC(=O)N1CCN(C(=O)CSCCC(=O)N(C)[C@H](C)C(=O)O[C@@H]2CC(=O)N(C)c3cc(cc(OC)c3Cl)C/C(C)=C/C=C/[C@H](OC)[C@]3(O)C[C@@H](OC(=O)N3)[C@H](C)[C@H]3O[C@@]32C)CC1 [EA-DM1, (1^4S,1^6S,3^2S,3^3R,2R,4S,10E,12E,14R)-8^6-chloro-1^4-hydroxy-8^5,14-dimethoxy-3^3,2,7,10-tetramethyl-1^2,6-dioxo-7-aza-1(6,4)-oxazinana-3(2,3)-oxirana-8(1,3)-benzenacyclotetradecaphane-10,12-dien-4-yl N-(3-((2-(4-((Z)-icos-11-enoyl)piperazin-1-yl)-2-oxoethyl)thio)propanoyl)-N-methyl-L-alaninate]
- changes in normal mouse fibroblast cells (NIH-3T3 cells): no noticeable changes
- targeting of gastric cancer cells (AGS; 5 nM, 2 days): effectively targeted gastric cancer cells
- time within which gastric cancer cells died after treatment (AGS; 100 nM): ≤ 2 days
- time within which gastric cancer cells died after treatment (NCI-N87): ≤ 2 days

Structure (SMILES): CCCCCCCC/C=C\CCCCCCCCCC(=O)Nc1ccc([N+](=O)[O-])c2nonc12 [NBD-EA, NBD-cis-11-Eicosenoic acid (C20:1, n-9)]
- NBD fluorescent signal in dysplastic cells (dysplastic cells; 6 h after treatment): not detectable
- NBD fluorescent signal in dysplastic cells (dysplastic cells; 24 h): strongly accumulated in mitochondria
- NBD fluorescent signal in dysplastic cells (dysplastic cells; 48 h): weakly maintained

Structure (SMILES): C1CCC(C(CC2CCCCN2)C2CCCCC2)CC1 (stereo not drawn) [perhexiline]
- organoid growth after co-treatment (dysplastic organoids [4]; A939572, EA and perhexiline 10 μM, 3 days): did not display any significant increase in organoid growth
- effect of FA oxidation inhibition on rescue by EA (dysplastic organoids [4]; perhexiline 10 μM with A939572 and EA, 3 days): abolished rescue effects of EA in dysplastic organoids
